From patent US12201632B2, “Levoketoconazole for treatment of congenital adrenal hyperplasia and primary aldosteronism” (Strongbridge Dublin Limited, priority 2018, dated 2025)
Read-outs that look alike come from different tables or passages of the source.

Experiments:
[1] = test system: primary human adrenocortical carcinoma cultures; assay: Cortisol production in primary adrenocortical carcinoma cultures; format: cell-based
Description: To obtain primary cultures, adrenal specimens (adrenocortical adenomas, adrenal hyperplasias and adrenocortical carcinomas) were collected after adrenalectomy at the department of Surgery, Erasmus University Medical Center, Rotterdam, the Netherlands, between April 2016 and May 2018. The study was conducted under guidelines that have been approved by the Medical Ethics Committee of the Erasmus Medical Center and informed consent was obtained from all patients. Immediately after surgery, specimens were minced into small pieces of 2-3 mm^3, washed in culture medium and centrifuged for 5 minutes at 600 g. The tissue was stored overnight in culture medium at 4° C., where after the tissue was centrifuged again and the supernatant was removed. Fragments were dissociated using 10-25 ml collagenase type 1 (2 mg/ml: Sigma-Aldrich), followed by incubation at 37° C. for up to two hours. Ficoll (GE healthcare) density gradient separation was used once or twice as required in order to separate contaminating red blood cells from the tumor cells. Cell viability and cell amount were counted by trypan blue exclusion. Dissociated cells were plated at a density of 10^5 cells per well. ACTH-secreting corticotroph pituitary adenoma tissue from patients with Cushing's disease (n=2) was available after transsphenoidal surgery. Single-cell suspensions of the pituitary adenoma tissues were prepared as previously described in detail.
Owing to a limited number of cells obtained from the specimens, not all experiments were carried out in every primary culture.
Cortisol concentrations were measured in the supernatant using a chemiluminescence immunoassay system (Immulite 2000XPi; Siemens DPC Inc., Los Angeles, Calif., USA). In addition, we carried out multi-steroid analysis by liquid chromatography/mass spectrometry (LC/MS-MS) to accurately quantify androstenedione, corticosterone, cortisol, 11-deoxycortisol, DHEA, DHEAS, progesterone, 17-hydroxyprogesterone, and testosterone. Concentrations that were tested on the LC/MS-MS were closest to 50% inhibition or maximal inhibition of cortisol as determined by the immunoassay. Steroids were quantified with respect to a calibration series, with internal standards. Steroids were quantified on a Xevo TQS LC-MS/MS (Waters Chromatography).
(§1) Statistical analysis was performed using Graphpad Prism 6.0 (Graphpad Software, San Diego, CA). Non-linear regression curve fitting program was used to calculate the half maximal inhibitory concentrations (IC50) on cortisol production. Effects of both compounds on the steroid profile were measured as absolute change compared to control and compared using the Student's t-test. When assessing differences between effects of both compounds, the percentage change was evaluated and compared in order to correct for differences in the vehicle treated control cells. Values of P<0.05 were considered statistically significant and data are presented as mean SEM.

AtT20 cells = assay: Cell number of corticotroph pituitary AtT20 cells; format: cell-based, mouse; settings: for IC50: AtT20, after 7 days, read-out: IC50 inhibition of cell number
Description: Human adrenocortical carcinoma HAC15 and mouse corticotroph AtT20 cells were used, purchased as a kind gift by Dr. W. Rainey, and obtained from Dr. J. Tooze (European Organization for Molecular Biology), respectively. Both cell lines were cultured in 75 cm^2 flasks at 37° C. in a humidified incubator (Greiner Bio-One, Alphen a/d Rijn, the Netherlands) at 5% CO2. Dulbecco's Modified Eagle Medium F12 containing 5% fetal calf serum was used for HAC15, whereas AtT20 cells were cultured in Dulbecco's minimal essential medium (DMEM) supplemented with 10% fetal calf serum. Both mediums were supplemented with L-glutamine (2 mmol/L) and penicillin (10^5 U/L). Short tandem repeat (str) profiling using a Powerplex Kit (Promega, Leiden, the Netherlands) of HAC15 and AtT20 gave results consistent with the ATCC database, confirming the identity of both cell lines. Medium and supplements were obtained from Invitrogen, Breda, the Netherlands. Once a week, cells were harvested with trypsin (0.05%)-EDTA (0.53 mM) and resuspended in culture medium. Levoketoconazole (COR-003) and racemic ketoconazole (both from Cortendo AB) were dissolved in absolute ethanol (EtOH), according to manufacturer's instructions, and stored at −20° C. at a stock concentration of 10^−2 μM. At the start of each experiment, both drugs were freshly prepared and diluted in EtOH in the correct concentrations. Synacten (synthetic ACTH, Novartis Pharma A.G.) stock concentration was stored at 4° C. and dissolved in culture medium at the day of use. The final concentrations of ACTH were chosen based on a dose-response curve in HAC15 cells and previously reported studies in the literature. For HAC15, 200,000 and 100,000 cells were plated in 0.5 ml medium in 24 well plates for experiments of 1 and 3 days, respectively. For AtT20, cell amounts were 100,000 and 30,000. One day after seeding the HAC15 cells, the medium was refreshed and cells were treated 1 or 3 days in quadruplicate with levoketoconazole or racemic ketoconazole (0.05-5 μM), with or without 10 nM ACTH. To study effects of both compounds on pituitary AtT20 cells, concentrations of 0.1 to 10 μM of both drugs were used. Controls were vehicle treated. […] All cell culture experiments were carried out at least twice.
As a measure of cell number, DNA concentrations were determined using the bisbenzimide fluorescent dye (Hoechst 33258, Sigma Aldrich), as previously described.
as §1

[2] = cited from earlier work
[3] = AtT20, after 3 and 7 days of treatment

IC50 ([1]; Homo sapiens, 72 h, ACC no. 2, basal condition, 3 days, read-out: IC50 inhibition of cortisol production) [nM]	IC50 ([1]; Homo sapiens, 72 h, ACC no. 3, basal condition, 3 days, read-out: IC50 inhibition of cortisol production) [nM]	IC50 (AtT20 cells; Mus musculus, 168 h) [nM]	SMILES	IC50 ([1]; ACC no. 1, basal condition, 3 days, read-out: IC50 inhibition of cortisol production) [nM]	IC50 ([1]; ACC no. 2, basal condition, 3 days, read-out: IC50 inhibition of cortisol production) [nM]	IC50 ([1]; ACC no. 3, ACTH (85 μM) stimulated condition, 3 days, read-out: IC50 inhibition of cortisol production) [nM]	IC50 ([1]; ACC no. 3, basal condition, 3 days, read-out: IC50 inhibition of cortisol production) [nM]	IC50 ([1]; basal condition, ACC (n=3), read-out: mean IC50 cortisol production) [nM]	effect on cell number (AtT20 cells; [3])	effect on cell number (AtT20 cells; AtT20, after 24 h of treatment)	IC50 (AtT20 cells) [nM]	accumulation in a subject's body over repeated dosing [2]
–	–	–	CC(=O)N1CCN(c2ccc(OC[C@@H]3CO[C@@](Cn4ccnc4)(c4ccc(Cl)cc4Cl)O3)cc2)CC1 (relative stereo) [levoketoconazole, 2S,4R cis-1-acetyl-4-[4-[[2-(2,4-dichlorophenyl)-2-(1H-imidazol-1-ylmethyl)-1,3-dioxolan-4-yl]methoxyl]phenyl]piperazine]	5.78	57.1	32.1	73.1	38.3	inhibited cell number	no effect	1050	significantly less accumulation
76.3	67.6	5810	CC(=O)N1CCN(c2ccc(OCC3COC(Cn4ccnc4)(c4ccc(Cl)cc4Cl)O3)cc2)CC1 (racemic) [racemic ketoconazole, Ketoconazole]	–	–	–	–	–	inhibited cell number	no effect	–	accumulate in a subject's body over repeated dosing
